Calls of active or inactive are those of the source. The calls are words filed in the database; no cut-off is given here.
How the values were obtained:
[1] = molecular target: T1, Endothelin receptor type B (Homo sapiens, UniProt P24530); assay: Displacement of [125I]ET1 from human ETB receptor expressed in membranes
T1 sequence (P24530 whole entry): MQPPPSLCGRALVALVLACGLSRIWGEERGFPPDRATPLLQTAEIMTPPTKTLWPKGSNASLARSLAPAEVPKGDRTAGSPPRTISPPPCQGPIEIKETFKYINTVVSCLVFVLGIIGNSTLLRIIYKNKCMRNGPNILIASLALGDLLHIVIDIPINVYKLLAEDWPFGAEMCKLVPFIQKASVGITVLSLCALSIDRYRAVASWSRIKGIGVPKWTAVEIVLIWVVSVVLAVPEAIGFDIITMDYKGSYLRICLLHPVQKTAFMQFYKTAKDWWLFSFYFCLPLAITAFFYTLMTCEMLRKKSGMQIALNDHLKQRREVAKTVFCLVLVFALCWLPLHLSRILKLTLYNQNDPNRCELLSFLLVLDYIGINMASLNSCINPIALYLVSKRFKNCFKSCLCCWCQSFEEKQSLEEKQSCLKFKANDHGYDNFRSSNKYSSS

Endothelin-1 receptor = molecular target: T2, Endothelin-1 receptor (Homo sapiens, UniProt P25101); assay: Displacement of [125I]ET1 from ETA receptor expressed in african green monkey CCL-81 cells monolayer; assay type: cell-based
T2 sequence (P25101 whole entry): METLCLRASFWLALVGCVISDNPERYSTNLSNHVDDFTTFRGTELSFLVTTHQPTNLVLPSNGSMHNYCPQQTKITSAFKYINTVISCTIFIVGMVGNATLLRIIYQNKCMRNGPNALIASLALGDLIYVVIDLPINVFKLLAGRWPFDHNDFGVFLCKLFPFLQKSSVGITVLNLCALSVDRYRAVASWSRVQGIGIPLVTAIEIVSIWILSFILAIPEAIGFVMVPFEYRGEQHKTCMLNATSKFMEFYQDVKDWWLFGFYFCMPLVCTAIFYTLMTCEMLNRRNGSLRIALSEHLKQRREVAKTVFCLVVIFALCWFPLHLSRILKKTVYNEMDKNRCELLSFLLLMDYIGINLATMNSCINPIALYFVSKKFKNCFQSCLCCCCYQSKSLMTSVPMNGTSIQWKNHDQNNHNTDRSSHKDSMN

[2] = Selectivity ratio, ratio of IC50 for ETB receptor to IC50 for ETA receptor
Hamster [3] = assay: Antiinflammatory activity against LPS-induced lung inflammation in hamster model assessed as reduction in bronchoalveolar lavage fluid leukocytes; assay type: functional, organism-based; conditions: Cricetinae
Hamster [4] = assay: Antiinflammatory activity against cigarette smoke-induced lung inflammation in hamster model assessed as reduction in bronchoalveolar lavage fluid leukocytes; assay type: functional, organism-based; conditions: Cricetinae
Mus musculus = organism: Mus musculus; assay: Inhibition of LPS-induced preterm delivery in pregnant mouse model; assay type: functional, organism-based
Hamster [5] = assay: Antiinflammatory activity against ET1-induced lung inflammation in hamster model assessed as reduction in bronchoalveolar lavage fluid leukocytes; assay type: functional, organism-based; conditions: Cricetinae

| SMILES | IC50 [1] [nM] | IC50 (Endothelin-1 receptor) [nM] | Ratio IC50 [2] | inhibition (Hamster [3]) | inhibition (Hamster [4]) | inhibition (Mus musculus) | inhibition (Hamster [5]) |
| --- | --- | --- | --- | --- | --- | --- | --- |
| CCc1cc2c(cc1Cn1c(C(=O)O)c(Cc3cccc(C(=O)O)c3)c(=O)c3cc(O)ccc31)OCO2 | 15600 | 38.9 | 399 | Active | Active | Active | Active |
| CCCCCOc1ccc2c(c1)c(=O)c(Cc1cccc(C(=O)O)c1)c(C(=O)O)n2Cc1cc2c(cc1CC)OCO2 |  | 610 |  |  |  |  |  |
| CCc1cc2c(cc1Cn1c(C(=O)O)c(Cc3cccc(C(=O)O)c3)c(=O)c3cc(OCC(=O)O)ccc31)OCO2 | 1450 | 285 | 5 |  |  |  |  |
| C=CCOc1ccc2c(c1)c(=O)c(Cc1cccc(C(=O)O)c1)c(C(=O)O)n2Cc1cc2c(cc1CC)OCO2 | 1130 | 38.1 | 30 |  |  |  |  |
| CCc1cc2c(cc1Cn1c(C(=O)O)c(Cc3cccc(C(=O)O)c3)c(=O)c3cc(OC(C)C)ccc31)OCO2 | 677 | 13.5 | 50 |  |  |  |  |
| CCc1cc2c(cc1Cn1c(C(=O)O)c(Cc3cccc(C(=O)O)c3)c(=O)c3cc(OCOC)ccc31)OCO2 | 1030 | 24.4 | 43 |  |  |  |  |
| CCOc1ccc2c(c1)c(=O)c(Cc1cccc(C(=O)O)c1)c(C(=O)O)n2Cc1cc2c(cc1CC)OCO2 | 3120 | 6.6 | 473 |  |  |  |  |
| CCc1cc2c(cc1Cn1c(C(=O)O)c(Cc3cccc(C(=O)O)c3)c(=O)c3cc(OCC4CC4)ccc31)OCO2 |  | 116 |  |  |  |  |  |
| CCc1cc2c(cc1Cn1c(C(=O)O)c(Cc3cccc(C(=O)O)c3)c(=O)c3cc(OC(C)CC)ccc31)OCO2 (stereo unspecified) |  | 9.9 |  |  |  |  |  |
| CCCOc1ccc2c(c1)c(=O)c(Cc1cccc(C(=O)O)c1)c(C(=O)O)n2Cc1cc2c(cc1CC)OCO2 | 913 | 0.11 | 8300 |  |  |  |  |
| CCc1cc2c(cc1Cn1c(C(=O)O)c(Cc3cccc(C(=O)O)c3)c(=O)c3cc(OCC(C)C)ccc31)OCO2 | 1980 | 6.3 | 315 |  |  |  |  |
| CCc1cc2c(cc1Cn1c(C(=O)O)c(Cc3cccc(C(=O)O)c3)c(=O)c3cc(OCCCO)ccc31)OCO2 | 4390 | 7.4 | 593 |  |  |  |  |
| CC(C)C[C@@H]1NC(=O)[C@@H](C(C)C)NC(=O)[C@@H]2CCCN2C(=O)C(CC(=O)O)NC(=O)[C@@H](Cc2c[nH]c3ccccc23)NC1=O (single isomer, unassigned) [BQ-123] |  | 24.8 |  |  |  |  |  |
| CCCCOc1ccc2c(c1)c(=O)c(Cc1cccc(C(=O)O)c1)c(C(=O)O)n2Cc1cc2c(cc1CC)OCO2 | 548 | 1.44 | 381 |  |  |  |  |
| CCc1cc2c(cc1Cn1c(C(=O)O)c(Cc3cccc(C(=O)O)c3)c(=O)c3ccccc31)OCO2 | 571 | 0.69 | 827 |  |  |  |  |

Source: ChEMBL document CHEMBL1268959, “Synthesis and pharmacological activity of 1,3,6-trisubstituted-4-oxo-1,4-dihydroquinoline-2-carboxylic acids as selective ET(A) antagonists” (Bioorg Med Chem Lett, 2010)
